Source: ChEMBL document CHEMBL3351824, “Synthesis and biological evaluation of novel tacrine derivatives and tacrine-coumarin hybrids as cholinesterase inhibitors” (J Med Chem, 2014)

Key:
Acetylcholinesterase [1] = target: T1, Acetylcholinesterase (Homo sapiens, UniProt P22303)
Description: Inhibition of human recombinant AChE pre-incubated for 5 mins before acetylthiocholine substrate addition by Ellman's method

Acetylcholinesterase [2] = target: T1, Acetylcholinesterase; remark: listed apart in the source
Description: Inhibition of human recombinant AChE assessed as dissociation constant for enzyme-inhibitor complex by Lineweaver-Burk plot

Cholinesterase = Cholinesterase (Homo sapiens, UniProt P06276)
Description: Inhibition of human BuChE pre-incubated for 5 mins before butylthiocholine substrate addition by Ellman's method

Acetylcholinesterase [3] = target: T1, Acetylcholinesterase; remark: listed apart in the source
Description: Inhibition of human recombinant AChE assessed as dissociation constant for enzyme-inhibitor-substrate complex by Lineweaver-Burk plot

T1 sequence (P22303 whole entry): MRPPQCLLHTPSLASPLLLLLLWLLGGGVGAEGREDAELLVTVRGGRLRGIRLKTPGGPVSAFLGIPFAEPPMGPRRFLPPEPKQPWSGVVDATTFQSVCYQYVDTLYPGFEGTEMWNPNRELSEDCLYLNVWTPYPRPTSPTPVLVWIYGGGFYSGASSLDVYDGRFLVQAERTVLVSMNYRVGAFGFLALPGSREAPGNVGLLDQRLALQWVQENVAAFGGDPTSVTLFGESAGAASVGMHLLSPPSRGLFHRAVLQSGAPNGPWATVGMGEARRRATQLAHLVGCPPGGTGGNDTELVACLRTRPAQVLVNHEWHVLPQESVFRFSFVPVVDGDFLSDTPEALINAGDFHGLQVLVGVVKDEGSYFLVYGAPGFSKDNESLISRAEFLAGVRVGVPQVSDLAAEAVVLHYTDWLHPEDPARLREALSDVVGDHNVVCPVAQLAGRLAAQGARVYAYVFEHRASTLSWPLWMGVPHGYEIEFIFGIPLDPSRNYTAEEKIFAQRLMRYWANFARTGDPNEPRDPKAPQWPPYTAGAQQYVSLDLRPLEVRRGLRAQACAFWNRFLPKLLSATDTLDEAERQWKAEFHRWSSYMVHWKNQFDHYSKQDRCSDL
Chain of Cholinesterase (P06276 whole entry): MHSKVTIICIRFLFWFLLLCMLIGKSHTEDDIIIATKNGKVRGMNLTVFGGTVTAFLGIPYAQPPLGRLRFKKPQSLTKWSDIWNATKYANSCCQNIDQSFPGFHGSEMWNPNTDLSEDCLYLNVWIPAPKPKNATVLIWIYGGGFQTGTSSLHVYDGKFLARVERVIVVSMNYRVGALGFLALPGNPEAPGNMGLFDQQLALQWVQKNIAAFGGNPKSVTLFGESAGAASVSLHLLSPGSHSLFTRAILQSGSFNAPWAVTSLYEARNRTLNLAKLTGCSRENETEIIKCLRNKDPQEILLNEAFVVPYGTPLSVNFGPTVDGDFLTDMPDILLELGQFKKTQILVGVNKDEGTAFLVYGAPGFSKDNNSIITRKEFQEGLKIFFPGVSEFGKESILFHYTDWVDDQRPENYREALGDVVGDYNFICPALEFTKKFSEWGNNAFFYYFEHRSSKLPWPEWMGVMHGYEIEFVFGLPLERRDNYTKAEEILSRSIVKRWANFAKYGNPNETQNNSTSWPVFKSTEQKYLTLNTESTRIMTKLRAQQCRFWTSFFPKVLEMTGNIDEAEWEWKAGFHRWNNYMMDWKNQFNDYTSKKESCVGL

Row | Structure (SMILES) | IC50 (Acetylcholinesterase [1]) [nM] | Ki (Acetylcholinesterase [2]) [nM] | IC50 (Cholinesterase) [nM] | Ki (Acetylcholinesterase [3]) [nM]
1 | O=C(Cc1cc(=O)oc2cc(O)ccc12)N/N=C1\SCC(=O)N1c1c2c(nc3ccccc13)CCCC2 | 15700 | 2360 | 5620 | 65300
2 | CCN(CCC(=O)NCCCNc1c2c(nc3ccccc13)CCCC2)C1CCCCC1 | 26.3 | 80.4 | 267 | 78.9
3 | O=C(Cc1cc(=O)oc2cc(O)ccc12)NCCCCNc1c2c(nc3ccccc13)CCCC2 | 15.4 | 4.1 | 328 | 23.4
4 | CN(CCC(=O)NCCCNc1c2c(nc3ccccc13)CCCC2)C1CCCCC1 | 398 | – | 2380 | –
5 | O=C(Cc1cc(=O)oc2cc(O)ccc12)NCCCNc1c2c(nc3ccccc13)CCCC2 | 277 | – | 827 | –
6 | O=C(Cc1cc(=O)oc2cc(O)ccc12)NCCNc1c2c(nc3ccccc13)CCCC2 | 2910 | – | 12600 | –
7 | O=C(Cc1cc(=O)oc2cc(O)ccc12)NNC(=S)Nc1c2c(nc3ccccc13)CCCC2 | 8170 | 1940 | 1420 | 92800
8 | CN(CCC(=O)NCCNc1c2c(nc3ccccc13)CCCC2)C1CCCCC1 | 580 | – | 2030 | –
9 | CCN(CCC(=O)NCCCCNc1c2c(nc3ccccc13)CCCC2)C1CCCCC1 | 94.2 | 199 | 228 | 328
10 | CCN(CCC(=O)NCCNc1c2c(nc3ccccc13)CCCC2)C1CCCCC1 | 233 | – | 765 | –
11 | CN(CCC(=O)NCCCCNc1c2c(nc3ccccc13)CCCC2)C1CCCCC1 | 104 | – | 2230 | –
